The text below walks through data of ChEMBL document CHEMBL4831522, “Structure-Based Optimization of Quinazolines as Cruzain and TbrCATL Inhibitors” (J Med Chem, 2021).

A short description of data set [1]: Selectivity index, ratio of CC50 for cytotoxicity against mouse C2C12 cells to EC50 for trypanocidal activity against Trypanosoma cruzi […] infected in mouse C2C12 cells. The conditions noted are these: read-out: Selectivity Index. It counts as toxicity, cell-based.
Data set [2] relates to Trypanosoma brucei brucei. Put plainly: Antitrypanosomal activity against Trypanosoma brucei brucei Lister 427 bloodstream forms measured after 72 hrs by SYBR green dye based assay. It counts as functional, organism-based. As to conditions: Lister 427, 72 h.
The subject of a further data set is Trypanosoma cruzi. Put plainly: Trypanocidal activity against amastigotes form of Trypanosoma cruzi CA-I/72 infected in mouse C2C12 cells assessed as inhibition of parasite replication incubated for 48 hrs by DAPI staining based microscopic analysis. It counts as functional, organism-based. As to conditions: CA-I/72, C2C12, 48 h.
The target of data set [3] is Cruzipain (Trypanosoma cruzi) (UniProt P25779). Put plainly: Inhibition of recombinant Trypanosoma cruzi cruzain at 20 uM using Z-FR-AMC as substrate by fluorometry relative to control.
Sequence of Cruzipain (Trypanosoma cruzi) (P25779 123-467 limits assumed): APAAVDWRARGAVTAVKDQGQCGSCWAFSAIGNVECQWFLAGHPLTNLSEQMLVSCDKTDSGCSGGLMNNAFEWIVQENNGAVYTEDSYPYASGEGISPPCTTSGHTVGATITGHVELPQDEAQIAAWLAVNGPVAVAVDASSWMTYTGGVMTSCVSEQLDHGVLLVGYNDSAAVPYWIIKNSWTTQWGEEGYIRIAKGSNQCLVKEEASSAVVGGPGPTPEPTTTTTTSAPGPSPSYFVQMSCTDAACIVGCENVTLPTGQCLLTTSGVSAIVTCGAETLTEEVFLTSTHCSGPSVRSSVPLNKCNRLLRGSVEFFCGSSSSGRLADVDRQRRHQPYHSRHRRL
A short description of data set [4]: Cytotoxicity against mouse C2C12 cells. It is filed as cell-based.
The target of data set [5] is Rhodesain (Trypanosoma brucei rhodesiense) (UniProt Q95PM0). The data set is described as follows: Inhibition of recombinant Trypanosoma brucei rhodesiense MVAT4 rhodesain expressed in Pichia pastoris at 100 uM using Z-FR-AMC as substrate by fluorometry relative to control.
Sequence of Rhodesain (Trypanosoma brucei rhodesiense) (Q95PM0 1-450): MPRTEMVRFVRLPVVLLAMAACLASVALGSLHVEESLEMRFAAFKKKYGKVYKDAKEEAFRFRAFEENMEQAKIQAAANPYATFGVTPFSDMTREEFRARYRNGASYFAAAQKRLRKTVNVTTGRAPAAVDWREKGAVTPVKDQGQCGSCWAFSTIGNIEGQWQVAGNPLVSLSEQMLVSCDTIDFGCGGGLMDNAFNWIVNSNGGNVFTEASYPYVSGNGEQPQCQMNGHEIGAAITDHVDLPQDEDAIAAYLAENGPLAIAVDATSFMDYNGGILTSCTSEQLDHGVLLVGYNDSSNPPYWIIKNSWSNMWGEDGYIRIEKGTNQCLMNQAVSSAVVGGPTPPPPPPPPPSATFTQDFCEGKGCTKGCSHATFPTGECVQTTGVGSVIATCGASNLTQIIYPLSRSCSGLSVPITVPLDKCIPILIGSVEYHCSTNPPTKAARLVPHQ
For data set [6] the target is unchanged. The data set is described as follows: Inhibition of recombinant Trypanosoma brucei rhodesiense MVAT4 rhodesain expressed in Pichia pastoris at 20 uM using Z-FR-AMC as substrate by fluorometry relative to control.
Data set [7] deals with Cruzipain (Trypanosoma cruzi) (UniProt P25779). The data set is described as follows: Inhibition of recombinant Trypanosoma cruzi cruzain using Z-FR-AMC as substrate and compound-enzyme complex preincubated for 5 mins in presence of 0.01% Triton-X100 by fluorometry relative to control.
The target is the same in data set [8]. Put plainly: Inhibition of recombinant Trypanosoma cruzi cruzain at 100 uM using Z-FR-AMC as substrate preincubated for 10 mins followed by substrate addition by fluorometry relative to control.
For data set [9] the target is unchanged. The data set is described as follows: Inhibition of recombinant Trypanosoma cruzi cruzain using Z-FR-AMC as substrate and compound-enzyme complex preincubated for 5 mins in presence of 0.1% Triton-X100 by fluorometry relative to control.
The target of data set [10] is Rhodesain (Trypanosoma brucei rhodesiense) (UniProt Q95PM0). Put plainly: Time dependent inhibition of recombinant Trypanosoma brucei rhodesiense MVAT4 rhodesain expressed in Pichia pastoris at 100 uM using Z-FR-AMC as substrate by fluorometry. As to conditions: time 10.0 min.
Data set [11] addresses Cruzipain (Trypanosoma cruzi) (UniProt P25779). The data set is described as follows: Inhibition of recombinant Trypanosoma cruzi cruzain using Z-FR-AMC as substrate when compound was preincubated for 5 mins in presence of BSA and 0.001% Triton-X100 followed by further incubation for 5 mins in presence of enzyme relative to control. The conditions noted are these: time 10.0 min.

Data set [12] deals with T1, Cruzipain (Trypanosoma cruzi, UniProt P25779). Put plainly: Inhibition of recombinant Trypanosoma cruzi cruzain using Z-FR-AMC as substrate preincubated for 10 mins followed by substrate addition by fluorometry.
T1 sequence (P25779 whole entry): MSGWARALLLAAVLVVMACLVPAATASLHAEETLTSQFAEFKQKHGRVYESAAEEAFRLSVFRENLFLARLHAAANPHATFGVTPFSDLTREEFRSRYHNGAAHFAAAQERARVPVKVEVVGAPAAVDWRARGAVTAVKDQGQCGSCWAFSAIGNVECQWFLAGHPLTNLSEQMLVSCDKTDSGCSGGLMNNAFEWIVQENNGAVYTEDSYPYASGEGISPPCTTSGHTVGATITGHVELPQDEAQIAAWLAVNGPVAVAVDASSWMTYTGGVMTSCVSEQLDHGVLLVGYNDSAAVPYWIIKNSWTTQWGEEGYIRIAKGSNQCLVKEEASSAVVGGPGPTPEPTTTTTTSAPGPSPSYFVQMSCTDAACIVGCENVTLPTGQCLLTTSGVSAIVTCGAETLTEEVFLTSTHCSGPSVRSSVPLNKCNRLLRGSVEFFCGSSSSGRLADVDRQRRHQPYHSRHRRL
Data set [13] concerns the target Cruzipain (Trypanosoma cruzi) (UniProt P25779). The data set is described as follows: Time dependent inhibition of recombinant Trypanosoma cruzi cruzain at 100 uM using Z-FR-AMC as substrate by fluorometry. The conditions noted are these: time 10.0 min.
Data set [14] shares this target. Put plainly: Inhibition of recombinant Trypanosoma cruzi cruzain using Z-FR-AMC as substrate and compound-enzyme complex preincubated for 5 mins in presence of 0.001% Triton-X100 by fluorometry relative to control.
In data set [15] the target is Rhodesain (Trypanosoma brucei rhodesiense) (UniProt Q95PM0). Put plainly: Inhibition of recombinant Trypanosoma brucei rhodesiense MVAT4 rhodesain expressed in Pichia pastoris at 1 uM using Z-FR-AMC as substrate by fluorometry relative to control.
For data set [16], the target named is T1, Cruzipain. Put plainly: Inhibition of recombinant Trypanosoma cruzi cruzain using Z-FR-AMC as substrate by fluorometry.
Another data set deals with Rhodesain (Trypanosoma brucei rhodesiense, UniProt Q95PM0). Put plainly: Inhibition of recombinant Trypanosoma brucei rhodesiense MVAT4 rhodesain expressed in Pichia pastoris using Z-FR-AMC as substrate by fluorometry.
Sequence of Rhodesain (Q95PM0 whole entry): as the sequence (Q95PM0 1-450) above
Data set [17] has as its target Cruzipain (Trypanosoma cruzi) (UniProt P25779). The data set is described as follows: Competitive inhibition of Trypanosoma cruzi cruzain assessed as increase in apparent Kapp up to 25 uM using varying levels of Z-FR-AMC as substrate by Michaelis-Menten analysis. The conditions noted are these: dose microM <=25.
For data set [18] the target is unchanged. Put plainly: Competitive inhibition of Trypanosoma cruzi cruzain assessed as unchanged initial velocity up to 25 uM using varying levels of Z-FR-AMC as substrate by Michaelis-Menten analysis. As to conditions: dose microM <=25.
Data set [19] has the same target. Put plainly: Inhibition of recombinant Trypanosoma cruzi cruzain at 100 uM using Z-FR-AMC as substrate by fluorometry relative to control.
The target in data set [20] is T1, Cruzipain. Put plainly: Competitive inhibition of Trypanosoma cruzi cruzain assessed as inhibition constant using varying levels of Z-FR-AMC as substrate by Michaelis-Menten analysis.
Data set [21] concerns the target Rhodesain (Trypanosoma brucei rhodesiense) (UniProt Q95PM0). The data set is described as follows: Inhibition of recombinant Trypanosoma brucei rhodesiense MVAT4 rhodesain expressed in Pichia pastoris at 50 uM using Z-FR-AMC as substrate preincubated for 10 mins followed by substrate addition by fluorometry relative to control.
Data set [22] deals with Cruzipain (Trypanosoma cruzi) (UniProt P25779). Put plainly: Inhibition of recombinant Trypanosoma cruzi cruzain at 50 uM using Z-FR-AMC as substrate preincubated for 10 mins followed by substrate addition by fluorometry relative to control.

Broadly, the EC50 is the concentration needed to bring the measured effect to its halfway point. One may read the inhibition as the change of the read-out against control, counted positive when it falls. Usually CC50 stands for the concentration at which the toxic effect on the cells reaches its halfway point. A low value points to harm at low concentration. One may read the IC50 as the concentration that inhibits the measured activity by half. For orientation: Ki means a dissociation constant, usually derived from enzyme kinetics or from competition with a known ligand.

Structures are written as SMILES. Activity calls are given as the source filed them. The calls are words filed in the database; no cut-off is given here.

As to `Clc1ccc(Nc2nccc(NCc3ccccc3)n2)cc1`, the selectivity ratio in data set [1] is over 1. The EC50 in [2] turned out to be 25 µM; in the data set with Trypanosoma cruzi, 7 µM. The inhibition in [3] is 34%; in [5], 10%; in data set [6] it was 10%. This compound also showed a CC50 in data set [4] of over 10 µM.

For the compound `COc1ccc(Nc2nc(NCc3ccccc3)c3ccccc3n2)cc1`, the selectivity ratio in [1] is 18. Further, the EC50 came out at 15.1 µM in data set [2] and 0.5 µM with Trypanosoma cruzi. Also, the inhibition in data set [7] is 50%; in data set [8], 58%; in data set [9], 31%; in data set [11], 65%; in data set [14] it was 83%. For the same compound, half-maximal cytotoxicity in [4] (CC50) was put at 9 µM. The TDI entry in data set [10] and in data set [13] was “Active” throughout. In addition, the IC50 on Cruzipain [12] came out at 52 µM.

Consider `CC(C)C[C@H](NC(=O)[C@@H]1O[C@H]1C(=O)O)C(=O)NCCCCN=C(N)N`, for which, in data set [15], the inhibition was determined as 87%. In addition, the IC50 on Cruzipain [16] was determined as 0.028 µM; at Rhodesain it was 0.0037 µM.

Consider `O=C(c1ccc(Nc2nc(NCc3ccccc3)c3ccccc3n2)cc1)N1CCOCC1`, for which the selectivity ratio in [1] is over 12. Besides, the inhibition entry in data set [17] and in data set [18] was “Active” throughout. Also, the EC50 in data set [2] is over 50 µM; in the data set with Trypanosoma cruzi, 0.8 µM. In addition, the inhibition in data set [7] is 53%; in data set [9], 49%; in [5], 7%; in [19] it was 99%; in data set [11], 46%; in [14], 45%. This compound came in with a CC50 in [4] of over 10 µM. The figures for the IC50 on Cruzipain [16] and at Rhodesain were 7 µM and 22 µM, respectively. The Ki on Cruzipain [20] was 3.2 µM.

As for `c1ccc(Nc2nc(Nc3ccccc3)c3ccccc3n2)cc1`, the selectivity ratio in [1] is over 11. Also, the concentration giving a half-maximal response (EC50) was 16.3 µM in [2] and 0.9 µM with Trypanosoma cruzi. Also, the inhibition amounted to 84% in [7]; 81% in data set [9]; 14% in data set [21]; 62% in data set [11]; 71% in data set [14]; 30% in data set [22]. In data set [4], this compound displayed a CC50 of over 10 µM. The IC50 at Cruzipain [12] came to 14 µM.
